Structures are written as SMILES. pEC50, pIC50: −log10 of the molar value. “And” between values parts separate entries of the source, which are not always exact repeats. Identical values can stand only once. The source made the active and inactive calls.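 How the source made its calls: active means compounds giving half or more protection of infected cells from virus-caused growth loss, again on retest; inactive means the rest.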 Some results are limits rather than exact numbers.

The subject of the assay is CEM cells HIV-1 protection, formazan growth assay. Nature of the assay: NCI AIDS Antiviral Assay. The following applies: for pIC50: measured here: growth of uninfected CEM cells. A digest of the protocol: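 Protection of CEM cells against HIV-1 measured as cell growth via soluble formazan read-out, with five concentrations tested on both infected and uninfected cells; failure to protect may reflect toxicity.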

In the case of `OCC1CCCCN1Cc1nc2ccc(Cl)cc2[nH]1` (stereo not drawn), the pEC50 (commonly −log10 of the EC50, conventionally taken in molar units) is under 3.70 and the pIC50 (in general, the negative decadic logarithm of the IC50, by convention in mol/L) was 3.71.

As to `O=[N+]([O-])C1CC/C(=N/O)c2nonc21` (stereo not drawn), the pEC50 is under 3.70 and the negative-log IC50 (pIC50) is 3.91.

For the compound `CC(=O)OC1CCC23COC(CC(C)C2C)C3(Cl)C1` (stereo not drawn), the pEC50 was under 3.70 and the pIC50 is under 3.70.

Consider `CCC[CH2][Sn]([CH2]CCC)([O]C(=O)c1nccnc1N)[O]C(=O)c1nccnc1N`, for which the pEC50 was under 4.29 and the negative-log IC50 (pIC50) is 6.54.

On to `Cc1cc(Cc2cc(C)c(NC(=O)C(=O)C3C(=O)NC(=S)NC3=O)c(C(C)C)c2)cc(C(C)C)c1NC(=O)C(=O)C1C(=O)NC(=S)NC1=O`, for which the outcome was inactive.

As for `O=C(CCc1ccc(O)c(O)c1)NCCc1cc(O)c(O)c(O)c1`, the pEC50 is under 3.70 and the pIC50 is 5.30.

As for `CN1CCN(C(=O)/N=N\C(=O)N2CCN(C)CC2)CC1`, the pEC50 is under 3.70 and the pIC50 is under 3.70.

On to `CCCCNC(=S)Nc1nc(C(=O)NNC(=S)NC2CCCCC2)cs1`, for which the pEC50 was under 3.70 and the negative-log IC50 (pIC50) is 3.77.

Consider `CCOC(=O)C(=CNc1ccc(NC2=NCC(C)S2)cc1)C(=O)OCC` (stereo not drawn), for which the pEC50 was under 3.70 and the negative logarithm of the IC50 (pIC50) is 5.49.

In the case of `NS(=O)(=O)c1nnc(NS(=O)(=O)c2cccc3cccnc23)s1`, the pEC50 is under 3.70 and the pIC50 was under 3.70.

On to `COc1ccc2c(=O)c(O)c(-c3ccc(OC)c(OC)c3)oc2c1`, for which the pEC50 is under 3.70 and the pIC50 is under 3.70.

On to `CCc1nnc(CC)n1NCCCC(=O)O`, for which the pEC50 was under 3.70 and the pIC50 is under 3.70.

As to `c1ccc(CSCSCc2ccccc2)cc1`, the result was inactive.

As for `Cc1ccc(S(=O)(=O)C2CC2(Cl)Cl)cc1` (stereo not drawn), the result was inactive.

As to `COC(=O)c1cc(C)ccc1C1CN=NC12Cc1cccc(C)c1C2=O` (stereo not drawn), the pEC50 is under 3.70 and the negative logarithm of the IC50 (pIC50) is 4.57.

Consider `C/C=C1\CN(C)C[C@H]2Cc3c(n(OC)c4ccccc34)C(=O)C[C@@H]12`, for which the pEC50 is under 4.62 and the pIC50 was under 4.62.

In the case of `CCOc1ccc2nc3cc(N=Nc4ccc5c(N)c6cc(OCC)ccc6nc5c4)ccc3c(N)c2c1`, the pEC50 was under 4.00 and the pIC50 is 4.69.

As to `CN1C2CCC1[C@@H](CO)[C@@H](O)C2` (stereo partly drawn), the pEC50 is under 2.92 and the pIC50 was under 2.92.

As to `Cc1ccc(N=Nc2c(N)nn3cc4c(nc23)-c2ccccc2C4)cc1`, the pEC50 was under 3.70 and the pIC50 was 5.53.

Consider `CC(=O)c1cccc(NC(=O)C(=O)C(C(=O)NN)c2ccccc2)c1` (stereo not drawn), for which the pEC50 was under 4.26 and the pIC50 was under 4.26.

For the compound `O=c1[nH]c2cc([N+](=O)[O-])ccc2nc1/C=C(\O)c1ccc([N+](=O)[O-])cc1`, the pEC50 was under 3.70 and the negative-log IC50 (pIC50) is 3.73.

As for `Cc1cc(C)cc(Sc2c([N+](=O)[O-])ncn2C)c1`, the pEC50 is under 4.56 and the pIC50 was 4.79.

As for `COc1cccc2c1ccc1nonc12`, the pEC50 was under 3.89 and the pIC50 was under 3.89.

On to `O=C1[C@H](O)[C@@H]2CCC[C@@]23CCCN13`, for which the pEC50 was under 3.70 and the pIC50 is under 3.70.

In the case of `CN(C)P1(=O)NCC(C)(C)CO1` (stereo not drawn), the pEC50 was under 2.89 and the pIC50 was under 2.89.

On to `CON1C(=O)C(c2cccs2)=C2SCC=C21`, for which the pEC50 was under 3.77 and the pIC50 was 5.37.

For `N#Cc1nc(-c2cccnc2)oc1N`, the pEC50 was under 3.70 and the pIC50 is under 3.70.

Take `CCc1ccc(C2=C(O)C(=O)C(c3ccc(CC)cc3)=C(O)C2=O)cc1`: the pEC50 is under 4.15 and the negative logarithm of the IC50 (pIC50) is 5.01.

Regarding `Cc1nc(C)c(C(=O)NNC(=O)Cc2ccccc2)cc1C(=O)NNC(=O)Cc1ccccc1`, the pEC50 was under 3.70 and the negative logarithm of the IC50 (pIC50) is under 3.70.

On to `COC(=O)C1(NC(=O)C(N)CC(=O)O)CC1(C)C` (stereo not drawn), for which the pEC50 is under 3.70 and the negative-log IC50 (pIC50) is under 3.70.

For the compound `O=C(OCCN1CCOCC1)c1cc2ccccc2oc1=O`, the pEC50 is under 3.13 and the pIC50 is under 3.13.

Consider `Cc1cc(Br)ccc1N=NC1C(=O)ON=C1c1ccccc1` (stereo not drawn), for which the result was inactive.

As for `CC(C)N1CSC(=S)N(Cc2ccccc2)C1`, the pEC50 is under 4.43 and the pIC50 is 4.49.

On to `CC1CN(CCO)CC(C)O1` (stereo not drawn), for which the pEC50 was under 2.80 and the negative-log IC50 (pIC50) is under 2.80.

As to `O=C(O)c1cc2ccc(Cl)cc2c(O)c1C1=CCCCC1`, the pEC50 was under 3.78 and the pIC50 is 4.47.

For the compound `O=C1CN2CC(c3ccccc3)OC2c2ccccc2N1` (stereo not drawn), the pEC50 was under 3.65 and the negative-log IC50 (pIC50) was under 3.65.

Take `CNc1ccc(C)cc1S(=O)(=O)c1ccccc1[N+](=O)[O-]`: the pEC50 was 6.08 and the pIC50 is 4.78.

For the compound `O=c1cc(NNc2cccc(F)c2)[nH]c(=O)[nH]1`, the pEC50 is under 3.70 and the pIC50 is 5.96.

`O=C(c1ccco1)N(C(=O)N1CCC(c2ccccc2)CC1)c1ccccc1`: the pEC50 was under 3.70 and the negative-log IC50 (pIC50) is 4.53.

In the case of `CCCCCCC[CH2][Sn]1([CH2]CCCCCCC)[O]C(=O)c2cccnc2[S]1`, the pEC50 was 6.10 and the pIC50 is 4.04.

As to `CC(=N/NC(=S)N1CCCCCC1)/C(C)=N\NC(=S)N1CCCCCC1`, the pEC50 was under 4.00 and the pIC50 is 5.06.

For the compound `NC(=O)C12C3C4C1C1C2C3C41C(N)=O` (stereo not drawn), the pEC50 was under 4.15 and the pIC50 was under 4.15.

As for `CC(=O)c1c2c(cc3c1CCC3)CCC2`, the pEC50 was under 3.70 and the negative-log IC50 (pIC50) was under 3.70.

For `COC(=O)C(Nc1ccc(OC)cc1)c1ccccc1` (stereo not drawn), the pEC50 was under 3.70 and the pIC50 was 3.83.

In the case of `c1ccc2c(c1)n1nnnc1c1nnnn21`, the pEC50 was under 4.47 and the negative logarithm of the IC50 (pIC50) is under 4.47.

As for `O=C(Nc1ccccc1[N+](=O)[O-])C(=O)C(C(=O)c1ccccc1-c1ccccc1)C1OC(=O)c2ccccc21` (stereo not drawn), the pEC50 was under 4.30 and the negative logarithm of the IC50 (pIC50) was 4.59.

Take `OC(c1cnc2sccn12)C(F)(F)Sc1ccccc1` (stereo not drawn): the pEC50 is under 3.70 and the pIC50 was 4.99.

As for `Cn1c2nc(=Nc3ccc(Cl)cc3)n3ccc4ccccc4c3c2c(=O)n1-c1ccccc1`, the pEC50 is under 3.70 and the pIC50 is 3.80.

For `CCOC(=O)C1(C)CCc2sc(N)c(C#N)c21` (stereo not drawn), the pEC50 was 4.08 and the negative logarithm of the IC50 (pIC50) was 3.80.

For the compound `COC(=O)CC(C)(NS(=O)c1ccc(C)cc1)c1ccccc1` (stereo not drawn), the pEC50 was under 3.70 and the negative-log IC50 (pIC50) is 3.92.

Take `Cc1nc2ccc(S(=O)(=O)NS(=O)(=O)c3ccc(-c4ccccc4)cc3)cc2c(=O)n1NS(=O)(=O)c1ccc(-c2ccccc2)cc1`: the pEC50 is under 3.70 and the negative-log IC50 (pIC50) is 3.77.

For `O=C([CH-]C(=O)c1ccccc1)c1ccccc1.O=C([CH-]C(=O)c1ccccc1)c1ccccc1.[OH-].[OH-].[Ti+4]`, the pEC50 is under 4.59 and the pIC50 was under 4.59.

As to `COc1ccc(OC)c2cc(Cc3ccc(N(C)C)cc3)c(=O)c(Cc3ccc(N(C)C)cc3)cc12`, the pEC50 was under 3.70 and the negative logarithm of the IC50 (pIC50) is 4.36.

For `COc1cc(C2SC(N)=Nc3c2c(C)nn3C(=O)c2ccc(Cl)cc2)cc(OC)c1OC` (stereo not drawn), the pEC50 is under 3.70 and the pIC50 is under 3.70.

For `CC(C)NCC(O)COc1cccc2ccccc12` (stereo not drawn), the pEC50 was under 3.70 and the pIC50 was 3.92.

Turning to `C=C1c2c(C)coc2C(=O)c2c(O)cc(OC)c(C)c21`, the outcome was inactive.

Regarding `O=c1c(Cl)c(Cl)cnn1-c1ccccc1`, the pEC50 is under 3.90; the pIC50 is 6.54 and 5.58.

For `N#Cc1cc(C#N)c(N)nc1N`, the pEC50 was under 3.70 and the pIC50 was under 3.70.

As to `COC(=O)[C@@H](NC1(c2ccccc2)c2ccccc2-c2ccccc21)[C@H](OC(=O)[C@H]1CCCN1S(=O)(=O)c1ccccc1)C(=O)OC`, the pEC50 is under 3.70 and the negative logarithm of the IC50 (pIC50) is 5.03.

The values are drawn from PubChem BioAssay AID179 (DTP/NCI, 2004).
